Converted amounts (≈) assume the structure as drawn. Where a name gives a salt, the structure may show the parent alone. Read-outs that look alike come from different tables or passages of the source.
Legend:
[1] = system: M. tuberculosis ATCC 27,294; test: MIC by resazurin microplate assay (broth microdilution); format: cell-based, Mycobacterium tuberculosis; settings: Mycobacterium tuberculosis, ATCC27, 144 h; read-out: Minimal inhibitory concentration (MIC) M. tuberculosis
S. pneumoniae ATCC 49619 = test: as above; format: cell-based, Streptococcus pneumoniae; settings: Streptococcus pneumoniae, ATCC49619, 10 h; read-out: Minimal inhibitory concentration (MIC) S. pneumoniae
[2] = system: C. ammoniagenes ATCC 6872; test: as above; format: cell-based, Corynebacterium ammoniagenes; settings: Corynebacterium ammoniagenes, ATCC6872, 16 h
CaFADS FMNAT activity = target: T1, CaFADS FMNAT activity (Corynebacterium ammoniagenes, UniProt Q59263); test: FMNAT activity of CaFADS: residual activity, IC50, inhibition mechanism (HPLC); format: biochemical; settings: for remaining activity at 250 µM: pH 7, read-out: % Residual FMNAT activity; for remaining activity at 50 µM: read-out: Residual activity (FMNAT); for Ki: global Lineweaver–Burk fit
T1 construct: Recombinant CaFADS was overexpressed in BL21 (DE3) E. coli cells and purified as previously described; made in house; host or cells: E. coli BL21 (DE3)
Protocol: (§1) Then, the RFK and FMNAT reactions were individually assayed in the presence of the HTS hits at 25 °C. Reaction mixtures contained 50 µM ATP, 5 µM RF, 0.4 µM CaFADS in 20 mM PIPES, pH 7.0, 0.8 mM MgCl2, when assaying the RFK activity, and 50 µM ATP, 10 µM FMN, 0.4 µM CaFADS in 20 mM PIPES, pH 7.0, 10 mM MgCl2 when measuring the FMNAT reaction. […] Finally, reactions were stopped by boiling the samples at 100 °C for 5 min, and the precipitated protein was eliminated through centrifugation. The transformation of RF into FMN or FAD was evaluated through flavins separation by HPLC, as previously described. […] When assaying the HTS hits against the FMNAT activity of SpnFADS, similar conditions were used but samples contained 3 mM sodium dithionite to maintain the flavin in its reduced state. Data were processed as previously reported. All the experiments were performed in triplicate.
(§2) Experiments were performed and analysed through HPLC as described above. Positive controls (without any hit compound) were included in every reaction set. DMSO concentration was kept at 2.5% in all samples. All the experiments were performed in triplicate.
All the experiments were carried out in 20 mM PIPES, 10 mM MgCl2, pH 7.0, 2.5% DMSO at 25 °C, being the final reaction volume 500 µl. The reactions were initiated by addition of CaFADS at a final concentration of ∼40 nM, followed by 1 min incubation. The flavin composition of the supernatant was analysed as previously described. All the experiments were performed in triplicate. The effect of the inhibitors on Km and Vmax was determined by fitting the data sets to the Michaelis–Menten model. Additionally, data were globally fit to Lineweaver–Burk equations for competitive, uncompetitive, non-competitive or mixed inhibition, yielding Ki, as well as Ki′ when applying, for each compound (Equations (1–4), respectively).

SpnFADS FMNAT activity = SpnFADS FMNAT activity (Streptococcus pneumoniae, UniProt A0A0H2UPY5); test: biochemical; settings: SpnFADS, 25 °C; for activity at 100 µM: 100 μM of each compound, n = 3, mean ± SD, read-out: FMNAT activity Res. activity; for IC50: compounds assayed 0–100 μM, read-out: FMNAT activity IC50
Protocol: as §1, §2

SpnFADS RFK activity = SpnFADS RFK activity (Streptococcus pneumoniae, UniProt A0A0H2UPY5); test: biochemical; settings: for activity at 100 µM: read-out: RFK activity Res. activity
Protocol: as §1, §2

CaFADS RFK activity = target: T2, CaFADS RFK activity (Corynebacterium ammoniagenes, UniProt Q59263); test: RFK activity of CaFADS in the presence of HTS hits (flavins separated by HPLC); format: biochemical; settings: pH 7, read-out: % Residual RFK activity
T2 construct: Recombinant CaFADS was overexpressed in BL21 (DE3) E. coli cells and purified as previously described; made in house; host or cells: E. coli BL21 (DE3)
Protocol: as §1

CaFADS = target: T3, CaFADS (Corynebacterium ammoniagenes, UniProt Q59263); test: Isothermal titration calorimetry (ITC) of hits binding to CaFADS; settings: ITC 25 °C, for 24: Site 1–2
T3 construct: Recombinant CaFADS was overexpressed in BL21 (DE3) E. coli cells and purified as previously described; made in house; host or cells: E. coli BL21 (DE3)
Protocol: ITC experiments were performed to characterise the protein’s affinity for the selected compounds, as also the thermodynamic parameters that drive the interaction. Experiments were carried out in an AutoITC200 (MicroCal) thermostated at 25 °C. In these experiments, ∼400 µM of each compound were used to titrate ∼25 µM CaFADS contained in a 200 µL cell. However, when saturation of the protein was not reached, higher concentrations of compounds were employed. The titrations were performed by stepwise injections of the titrating compound. Up to 19 injections of 2 µl were added to the cell sample and mixed using a 1000 rpm stirrer syringe. The compounds and the protein were dissolved in 20 mM PIPES, pH 7.0, 10 mM MgCl2 and degassed prior to titration. DMSO was added to the protein and ligand samples, until reach a final concentration of 3%. The association constant (Ka), the enthalpy variation (ΔH) and the binding stoichiometry (N), were obtained through non-lineal regression of the data to a model for one or two independent binding sites, implemented in Origin 7.0 (OriginLab) as previously described[27]^,[29]. The entropic contribution (−TΔS), the Gibbs free energy (ΔG) and the dissociation constant (Kd) were obtained through essential thermodynamic equations.

[3] = read-out: Minimal inhibitory concentration (MIC) C. ammoniagenes
[4] = SpnFADS, compounds assayed 0–100 μM, 25 °C, read-out: RFK activity IC50
[5] = read-out: Minimal inhibitory concentration (MIC) C. ammoniagenes, assayed 0.125–64 μM, 16 h at 37 °C, BHI

Sequence of SpnFADS RFK activity (A0A0H2UPY5 entry or part of it): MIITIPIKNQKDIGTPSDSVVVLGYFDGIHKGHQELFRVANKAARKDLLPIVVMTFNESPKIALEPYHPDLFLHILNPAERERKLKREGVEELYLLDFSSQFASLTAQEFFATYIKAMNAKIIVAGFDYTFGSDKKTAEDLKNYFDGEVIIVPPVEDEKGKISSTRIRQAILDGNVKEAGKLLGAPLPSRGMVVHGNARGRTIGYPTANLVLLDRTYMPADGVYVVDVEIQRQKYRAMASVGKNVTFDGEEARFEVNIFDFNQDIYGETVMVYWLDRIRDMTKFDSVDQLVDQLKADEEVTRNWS
Sequence of SpnFADS FMNAT activity (A0A0H2UPY5 entry or part of it): as above
T3 sequence (Q59263 whole entry): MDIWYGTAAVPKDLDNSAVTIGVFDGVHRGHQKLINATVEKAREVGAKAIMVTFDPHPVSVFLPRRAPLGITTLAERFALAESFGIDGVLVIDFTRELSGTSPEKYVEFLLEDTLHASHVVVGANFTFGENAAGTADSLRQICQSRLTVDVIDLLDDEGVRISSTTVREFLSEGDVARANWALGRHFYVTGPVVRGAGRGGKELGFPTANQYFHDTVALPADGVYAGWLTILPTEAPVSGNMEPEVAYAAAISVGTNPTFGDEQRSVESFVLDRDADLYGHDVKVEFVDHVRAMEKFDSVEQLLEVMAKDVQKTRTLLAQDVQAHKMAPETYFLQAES
T2 sequence (Q59263 whole entry): as above
T1 sequence (Q59263 whole entry): as above

Row | SMILES | MIC [1] [µM] | MIC (S. pneumoniae ATCC 49619) [µM] | MIC [2, 3] [µM] | remaining activity at 250 µM (CaFADS FMNAT activity) [%] | activity at 100 µM (SpnFADS FMNAT activity) [%] | remaining activity at 250 µM (CaFADS RFK activity) [%] | IC50 (CaFADS FMNAT activity) [µM] | remaining activity at 50 µM (CaFADS FMNAT activity) [%] | MIC [2, 5] [µM] | other results
1 | CC(C)n1c(/C=C/C(O)CC(O)CC(=O)O)c(-c2ccc(F)cc2)c2ccccc21 (centres unmarked) [HTS hit 37, fluvastatin sodium salt] | > 64 | > 64 | > 64 | ≤ 5 | 0 | ≤ 5 | – | – | – | IC50 (SpnFADS FMNAT activity): 7 ± 1 µM; IC50 (SpnFADS RFK activity): > 100 µM; activity at 100 µM (SpnFADS RFK activity): 96 ± 10%
2 | O=C(O)CCc1nc(-c2ccccc2)c(-c2ccccc2)o1 [HTS hit 43, oxaprozin] | – | – | – | ≤ 5 | 100 ± 15 | ≥ 75 | 1 ± 0.5 | 20.3 ± 5.2 | – | IC50 (SpnFADS RFK activity; [4]): 14 ± 2 µM; activity at 100 µM (SpnFADS RFK activity): 32 ± 3%
3 | CC/C(=C(/CC)c1ccc(O)cc1)c1ccc(O)cc1 [HTS hit 32, diethylstilbestrol] | > 64 | 64 (≈ 17.2 µg/mL) | 8 (≈ 2.15 µg/mL) | 5 to 50 | – | 50 to 75 | – | – | 2 to 16 (≈ 0.537 to 4.29 µg/mL) | –
4 | C/C=C(/C(=C/C)c1ccc(O)cc1)c1ccc(O)cc1 [HTS hit 35, dienestrol] | > 64 | 64 (≈ 17 µg/mL) | 16 to 32 (≈ 4.26 to 8.52 µg/mL) | 5 to 50 | – | ≤ 5 | – | – | 2 to 16 (≈ 0.533 to 4.26 µg/mL) | –
5 | CCCCCCCCCCCCCCCC[N+](C)(C)CCN(Cc1ccc(OC)cc1)c1ncccn1 [HTS hit 9, thonzonium bromide] | 16 | 1 to 2 | 2 | ≤ 5 | 7 ± 1 | ≤ 5 | – | – | < 2 | IC50 (SpnFADS FMNAT activity): 78 ± 6 µM; activity at 100 µM (SpnFADS RFK activity; SpnFADS, 100 μM of each compound, 25 °C, n = 3, mean ± SD): 0%; IC50 (SpnFADS RFK activity; [4]): 6 ± 1 µM
6 | Cc1c(Nc2ncccc2C(=O)O)cccc1C(F)(F)F [HTS hit 31, flunixin meglumine] | > 64 | > 64 | 32 to 64 | ≤ 5 | – | ≥ 75 | 6.6 ± 0.6 | 24.5 ± 1.9 | > 64 | N (binding stoichiometry) (CaFADS; 3% DMSO): ≈ 1; ΔG (CaFADS; average value where N ≈ 2): -6.2 ± 0.6 kcal/mol; ΔH (CaFADS; average value where N ≈ 2): -7.2 ± 0.4 kcal/mol; −TΔS (CaFADS; average value where N ≈ 2): 1.1 ± 0.1 kcal/mol; Kd (CaFADS; Kd, 3% DMSO, average value for two hit molecules where N ≈ 2): 30.9 ± 2.8 µM; Inhibition mechanism (CaFADS FMNAT activity; CaFADS FMNAT, saturating ATP (regarding the FMN substrate)): Non-competitive; Inhibition mechanism (CaFADS FMNAT activity; CaFADS FMNAT, saturating FMN (regarding the ATP substrate)): Mixed; K'i (CaFADS FMNAT activity; CaFADS FMNAT, saturating FMN, varying ATP, binding to the CaFADS-ATP complex): 18.4 ± 4.0 µM; Ki (CaFADS FMNAT activity; CaFADS FMNAT, saturating ATP, varying FMN): 0.09 ± 0.03 µM; Ki (CaFADS FMNAT activity; CaFADS FMNAT, saturating FMN, varying ATP): 3.5 ± 1 µM; apparent kcat (CaFADS FMNAT activity; saturating ATP, varying FMN, inhibitor 1 μM): 0.41 ± 0.0483 s⁻¹; apparent kcat (CaFADS FMNAT activity; saturating ATP, varying FMN, inhibitor 4 μM): 0.302 ± 0.0233 s⁻¹; apparent kcat (CaFADS FMNAT activity; saturating ATP, varying FMN, inhibitor 5 μM): 0.107 ± 0.02 s⁻¹; apparent kcat (CaFADS FMNAT activity; saturating ATP, varying FMN, inhibitor 7 μM): 0.05 ± 0.0067 s⁻¹; apparent kcat (CaFADS FMNAT activity; saturating ATP, varying FMN, inhibitor 10 μM): 0.05 ± 0.0067 s⁻¹; apparent kcat (CaFADS FMNAT activity; saturating FMN, varying ATP, inhibitor 4 μM): 0.328 ± 0.0167 s⁻¹; apparent kcat (CaFADS FMNAT activity; saturating FMN, varying ATP, inhibitor 5 μM): 0.288 ± 0.0183 s⁻¹; apparent kcat (CaFADS FMNAT activity; saturating FMN, varying ATP, inhibitor 7 μM): 0.282 ± 0.01 s⁻¹; apparent kcat (CaFADS FMNAT activity; saturating FMN, varying ATP, inhibitor 10 μM): 0.255 ± 0.0217 s⁻¹; apparent kcat (CaFADS FMNAT activity; saturating FMN, varying ATP, inhibitor 12 μM): 0.23 ± 0.0167 s⁻¹
7 | CCc1oc2ccccc2c1C(=O)c1cc(Br)c(O)c(Br)c1 [HTS hit 17, benzbromarone] | > 64 | > 64 | 8 (≈ 3.39 µg/mL) | ≤ 5 | – | ≥ 75 | 12.8 ± 3.4 | 33.5 ± 10.1 | 2 to 16 (≈ 0.848 to 6.79 µg/mL) | –
